Experimental data as given in patent US8410106B2, “Hydrazine-substituted anthranilic acid derivatives” (Bayer Cropscience AG, priority 2010, dated 2013).
Read-outs that look alike come from different tables or passages of the source.

Columns and labels:
[1] = logP determination by HPLC on reversed-phase columns (C 18), EEC Directive 79/831 Annex V.A8; assay type: physicochemical
[2] = system: green peach aphid (Myzus persicae); test: Myzus test (MYZUPE spray treatment); assay type: in vivo; conditions: foliar, 144 h, read-out: activity (aphids killed)
Protocol: After 6 days the activity is determined, in %.

[3] = system: caterpillars of the army worm (Spodoptera frugiperda); test: Spodoptera frugiperda test (SPODFR spray treatment); assay type: in vivo; conditions: foliar, 168 h, read-out: activity (caterpillars killed)
[4] = system: larvae of the mustard beetle (Phaedon cochleariae); test: Phaedon test (PHAECO spray treatment); conditions: in Brassica rapa, foliar, 168 h, read-out: activity (beetle larvae killed)
[5] = HPLC, reversed-phase C 18, table value without method mark, read-out: logP
[6] = application rate 100 g/ha, after 6 days, Chinese cabbage leaf discs, spray
[7] = application rate 100 g/ha, after 7 days, maize leaf discs, spray

| SMILES | chromatographic logP [1, 5] | chromatographic logP [1] | pest or weed control at 100 g/ha ([2]; in Brassica rapa) [%] | pest or weed control at 100 g/ha ([3]; in Zea mays) [%] | pest or weed control at 100 g/ha [4] [%] | other results |
| --- | --- | --- | --- | --- | --- | --- |
| COC(=O)N(C)NC(=O)c1cc(C#N)cc(C)c1NC(=O)c1cc(Cn2nnnc2C(F)(F)F)nn1-c1ccccc1Cl [Example 55] | 2.69 |  |  |  |  |  |
| COC(=O)N(C)NC(=O)c1cc(Cl)cc(Cl)c1NC(=O)c1cc(Cn2nc(C(F)F)cc2C(F)F)nn1-c1ncccc1Cl [Example 42] |  | 2.9 | 100 | 100 | 100 |  |
| COC(=O)N(C)NC(=O)c1cc(Cl)cc(C)c1NC(=O)c1cc(Cn2nnc(C(F)(F)F)n2)nn1-c1ccccc1Cl [Example 85] | 3.34 |  |  |  | 100 | pest or weed control at 100 g/ha [2, 6]: 100%; pest or weed control at 100 g/ha [3, 7]: 100% |
| COC(=O)N(C)NC(=O)c1cc(Cl)cc(C)c1NC(=O)c1cc(Cn2nc(C(F)(F)C(F)(F)F)cc2C(F)(F)C(F)(F)F)nn1-c1ncccc1Cl [Example 13] | 4.32 |  |  |  | 100 | pest or weed control at 100 g/ha [3, 7]: 100% |
| COC(=O)N(C)NC(=O)c1cc(Cl)cc(Cl)c1NC(=O)c1cc(Cn2nc(C(F)(F)C(F)(F)F)cc2C(F)(F)C(F)(F)F)nn1-c1ncccc1Cl [Example 14] | 4.3 |  |  |  | 100 | pest or weed control at 100 g/ha [3, 7]: 100% |
| COC(=O)N(C)NC(=O)c1cc(C(F)(F)F)cc(C)c1NC(=O)c1cc(Cn2nnc(C(F)(F)F)n2)nn1-c1ncccc1Cl [Example 60] |  | 3.17 | 100 | 100 | 100 |  |
| COC(=O)N(C)NC(=O)c1cc(C#N)cc(C)c1NC(=O)c1cc(Cn2cnc(C(F)(F)F)c2)nn1-c1ncccc1Cl [Example 78] |  | 2.1 | 90 |  |  |  |
| COC(=O)N(C)NC(=O)c1cc(Br)cc(C)c1NC(=O)c1cc(Cn2nnc(C(F)F)n2)nn1-c1ncccc1Cl [Example 27] |  | 2.58 | 100 | 100 | 100 |  |
| COC(=O)N(C)NC(=O)c1cc(Cl)cc(C)c1NC(=O)c1cc(Cn2cnc(SC)n2)nn1-c1ncccc1Cl [Example 64] |  | 2.09 |  |  |  |  |
| COC(=O)N(C)NC(=O)c1cc(I)cc(C)c1NC(=O)c1cc(Cn2cnc(C(F)(F)F)c2)nn1-c1ncccc1Cl [Example 77] |  | 2.56 | 80 | 83 |  |  |
| COC(=O)N(C)NC(=O)c1cc(Cl)cc(C)c1NC(=O)c1cc(Cn2cc(C3CC3)nn2)nn1-c1ncccc1Cl [Example 37] |  | 2.18 | 100 | 100 | 100 |  |
| COC(=O)N(C)NC(=O)c1cc(Cl)cc(Cl)c1NC(=O)c1cc(Cn2nc(C(F)(F)F)cc2C(F)(F)F)nn1-c1ncc(C(F)(F)F)cc1Cl [Example 18] | 4.32 |  |  |  |  |  |
| COC(=O)N(C)NC(=O)c1cc(Cl)cc(Cl)c1NC(=O)c1cc(Cn2cnc(C(F)(F)F)c2C(F)(F)F)nn1-c1ncccc1Cl [Example 36] | 3.1 |  |  |  | 100 | pest or weed control at 100 g/ha [2, 6]: 100%; pest or weed control at 100 g/ha [3, 7]: 100% |
| COC(=O)N(C)NC(=O)c1cc(C#N)cc(C)c1NC(=O)c1cc(Cn2nnc(C(F)(F)C(F)(F)F)n2)nn1-c1ncccc1Cl [Example 73] | 2.97 |  |  |  | 100 | pest or weed control at 100 g/ha [2, 6]: 100%; pest or weed control at 100 g/ha [3, 7]: 100% |
| COC(=O)N(C)NC(=O)c1cc(Cl)cc(Cl)c1NC(=O)c1cc(Cn2nc(C(F)(F)F)nc2C)nn1-c1ncccc1Cl [Example 21] |  | 2.51 | 90 | 100 |  |  |
| COC(=O)N(C)NC(=O)c1cc(Cl)cc(Cl)c1NC(=O)c1cc(Cn2nnc(C(F)(F)C(F)(F)F)n2)nn1-c1ncccc1Cl [Example 25] |  | 3.32 | 100 | 100 | 100 |  |
| COC(=O)N(C)N(C)C(=O)c1cc(Cl)cc(C)c1NC(=O)c1cc(Cn2cc(C(C)(C)C)nn2)nn1-c1ncccc1Cl [Example 40] |  | 2.98 |  |  |  |  |
| COC(=O)N(C)NC(=O)c1cc(C#N)cc(C)c1NC(=O)c1cc(Cn2cnc(C(F)(F)F)c2C(F)(F)F)nn1-c1ncccc1Cl [Example 76] | 2.77 |  |  |  |  |  |
| COC(=O)N(C)NC(=O)c1cc(Cl)cc(C)c1NC(=O)c1cc(Cn2cc(C(C)(C)C)nn2)nn1-c1ncccc1Cl [Example 24] |  | 2.53 |  |  |  |  |
| COC(=O)N(C)NC(=O)c1cc(Cl)cc(C)c1NC(=O)c1cc(Cn2nc(C)c(Br)c2C)nn1-c1ncccc1Cl [Example 65] |  | 2.97 | 80 | 100 |  |  |
| COC(=O)N(C)NC(=O)c1cc(Cl)cc(C)c1NC(=O)c1cc(CNS(=O)(=O)c2ccccc2)nn1-c1ncccc1Cl [Example 71] |  | 2.42 |  |  |  |  |

| SMILES | chromatographic logP [1, 5] | chromatographic logP [1] | pest or weed control at 100 g/ha ([2]; in Brassica rapa) [%] | pest or weed control at 100 g/ha ([3]; in Zea mays) [%] | pest or weed control at 100 g/ha [4] [%] | other results |
| --- | --- | --- | --- | --- | --- | --- |
| COC(=O)N(C)NC(=O)c1cc(Cl)cc(C)c1NC(=O)c1cc(Cn2ncc(C(F)(F)F)n2)nn1-c1ncccc1Cl [Example 30] |  | 2.94 | 100 | 100 | 100 |  |
| COC(=O)N(C)NC(=O)c1cc(Cl)cc(C)c1NC(=O)c1cc(Cn2cc([N+](=O)[O-])c(C(F)(F)F)n2)nn1-c1ncccc1Cl [Example 20] |  | 3.07 | 90 | 100 | 100 |  |
| COC(=O)N(C)NC(=O)c1cc(I)cc(C)c1NC(=O)c1cc(Cn2ccc(C(F)(F)F)n2)nn1-c1ncccc1Cl [Example 17] |  | 3.01 | 100 | 100 | 100 |  |
| COC(=O)N(C)N(C)C(=O)c1cc(Cl)cc(C)c1NC(=O)c1cc(Cn2nnc(C(F)(F)F)n2)nn1-c1ncccc1Cl [Example 7] |  | 3.39 | 100 | 100 | 100 |  |
| COC(=O)N(C)NC(=O)c1cc(I)cc(C)c1NC(=O)c1cc(Cn2cnc(C(F)(F)F)c2C(F)(F)F)nn1-c1ncccc1Cl [Example 49] | 3.26 |  |  |  | 100 | pest or weed control at 100 g/ha [2, 6]: 100%; pest or weed control at 100 g/ha [3, 7]: 100% |
| COC(=O)N(C)NC(=O)c1cc(Cl)cc(Cl)c1NC(=O)c1cc(Cn2nc(C(F)(F)F)c(Cl)c2C)nn1-c1ncccc1Cl [Example 11] |  | 3.55 | 90 | 100 | 100 |  |
| COC(=O)NNC(=O)c1cc(I)cc(C)c1NC(=O)c1cc(Cn2cnc(C(F)(F)F)c2)nn1-c1ncccc1Cl [Example 80] |  | 2.38 |  |  |  |  |
| COC(=O)N(C)NC(=O)c1cc(C#N)cc(C)c1NC(=O)c1cc(COc2ccc(C(F)(F)F)nn2)nn1-c1ncccc1Cl [Example 22] |  | 2.53 | 100 |  | 100 |  |
| COC(=O)N(C)NC(=O)c1cc(C#N)cc(C)c1NC(=O)c1cc(Cn2nnc(C(F)(F)F)n2)nn1-c1ccccc1Cl [Example 56] | 2.97 |  |  |  |  |  |
| COC(=O)NNC(=O)c1cc(C#N)cc(C)c1NC(=O)c1cc(Cn2nnc(C(F)(F)F)n2)nn1-c1ccccc1Cl [Example 84] |  |  |  |  | 100 | pest or weed control at 100 g/ha [2, 6]: 100%; pest or weed control at 100 g/ha [3, 7]: 100% |
| COC(=O)N(C)NC(=O)c1cc(Cl)cc(Cl)c1NC(=O)c1cc(Cn2nc(C(F)(F)F)cc2-c2ccccc2)nn1-c1ncccc1Cl [Example 15] | 3.82 |  |  |  |  | pest or weed control at 100 g/ha [3, 7]: 100% |
| COC(=O)N(C)NC(=O)c1cc(Cl)cc(Cl)c1NC(=O)c1cc(Cn2nc(C(F)(F)F)c([N+](=O)[O-])c2C)nn1-c1ncccc1Cl [Example 19] | 3.11 |  |  |  | 100 | pest or weed control at 100 g/ha [3, 7]: 100% |
| COC(=O)N(C)NC(=O)c1cc(Cl)cc(Cl)c1NC(=O)c1cc(Cn2nnc(C(F)(F)F)n2)nn1-c1ncccc1Cl [Example 43] |  | 2.92 |  |  |  |  |
| COC(=O)N(C)NC(=O)c1cc(Cl)cc(C)c1NC(=O)c1cc(CNS(=O)(=O)c2ccccc2C(F)(F)F)nn1-c1ncccc1Cl [Example 70] | 2.81 |  |  |  |  |  |
| COC(=O)N(C)N(C)C(=O)c1cc(Cl)cc(C)c1NC(=O)c1cc(Cn2cc(C3CC3)nn2)nn1-c1ncccc1Cl [Example 39] |  | 2.71 | 80 |  |  |  |
| COC(=O)NNC(=O)c1cc(C#N)cc(C)c1NC(=O)c1cc(Cn2nnc(C(F)(F)F)n2)nn1-c1ccccc1Cl [Example 58] | 2.79 |  |  |  |  |  |
| COC(=O)NNC(=O)c1cc(Cl)cc(C)c1NC(=O)c1cc(Cn2cc(C(C)(C)C)nn2)nn1-c1ncccc1Cl [Example 62] |  | 2.38 |  | 100 |  |  |
| COC(=O)N(C)NC(=O)c1cc(Cl)cc(C)c1NC(=O)c1cc(Cn2nc(C(F)(F)F)cc2C(F)(F)F)nn1-c1ncc(C(F)(F)F)cc1Cl [Example 10] | 4.35 |  |  |  |  |  |
| COC(=O)NNC(=O)c1cc(I)cc(C)c1NC(=O)c1cc(Cn2nnc(C(F)(F)C(F)(F)C(F)(F)F)n2)nn1-c1ncccc1Cl [Example 2, Methyl N′-(2-{[2-(3-chloropyridin-2-yl)-5-(5-heptalluoropropyltetrazol-2-ylmethyl)-2H-pyrazole-3-carbonyl]amino}-5-iodo-3-methylbenzoyl)hydrazincarboxylate] |  |  |  | 100 | 100 | chromatographic logP ([1]; HPLC, reversed-phase C 18, value in text of the Preparation Examples, read-out: logP): 3.58 |
| COC(=O)N(C)NC(=O)c1cc(F)cc(C)c1NC(=O)c1cc(Cn2nnc(C(F)(F)C(F)(F)F)n2)nn1-c1ncccc1Cl [Example 44] |  | 3.05 |  |  |  |  |
